Assay results reported in ChEMBL document CHEMBL1146849, “Identification of a lead pharmacophore for the development of potent nuclear receptor modulators as anticancer and X syndrome disease therapeutic agents” (Bioorg Med Chem Lett, 2006).
Calls of active or inactive are those of the source. The rule behind the calls is not given here.

Columns and labels:
[1] = tested on: Androgen receptor (Homo sapiens), P10275 [T878A]; experiment: Agonist activity at human androgen receptor T877A mutant relative to control; assay type: functional
[2] = target: T1, Bile acid receptor (Homo sapiens) (UniProt Q96RI1); experiment: Agonist activity at FXR in HepG2 cells by luciferase activity relative to CDCA at 10 uM; assay type: functional, cell-based
T1 sequence (whole entry): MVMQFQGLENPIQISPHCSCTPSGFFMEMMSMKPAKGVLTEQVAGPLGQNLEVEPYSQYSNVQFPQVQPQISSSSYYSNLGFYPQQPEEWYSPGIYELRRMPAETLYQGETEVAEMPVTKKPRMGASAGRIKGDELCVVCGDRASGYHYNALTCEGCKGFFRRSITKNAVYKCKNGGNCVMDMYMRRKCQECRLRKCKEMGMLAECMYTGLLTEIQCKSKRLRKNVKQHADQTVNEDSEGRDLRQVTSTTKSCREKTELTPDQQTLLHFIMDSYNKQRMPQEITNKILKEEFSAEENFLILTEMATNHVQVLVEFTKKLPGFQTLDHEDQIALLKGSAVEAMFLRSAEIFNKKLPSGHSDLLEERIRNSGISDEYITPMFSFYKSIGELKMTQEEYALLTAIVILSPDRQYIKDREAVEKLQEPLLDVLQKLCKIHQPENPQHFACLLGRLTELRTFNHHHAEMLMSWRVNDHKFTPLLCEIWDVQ

Chain of Androgen receptor (Homo sapiens), P10275 [T878A] (P10275 whole entry T878A): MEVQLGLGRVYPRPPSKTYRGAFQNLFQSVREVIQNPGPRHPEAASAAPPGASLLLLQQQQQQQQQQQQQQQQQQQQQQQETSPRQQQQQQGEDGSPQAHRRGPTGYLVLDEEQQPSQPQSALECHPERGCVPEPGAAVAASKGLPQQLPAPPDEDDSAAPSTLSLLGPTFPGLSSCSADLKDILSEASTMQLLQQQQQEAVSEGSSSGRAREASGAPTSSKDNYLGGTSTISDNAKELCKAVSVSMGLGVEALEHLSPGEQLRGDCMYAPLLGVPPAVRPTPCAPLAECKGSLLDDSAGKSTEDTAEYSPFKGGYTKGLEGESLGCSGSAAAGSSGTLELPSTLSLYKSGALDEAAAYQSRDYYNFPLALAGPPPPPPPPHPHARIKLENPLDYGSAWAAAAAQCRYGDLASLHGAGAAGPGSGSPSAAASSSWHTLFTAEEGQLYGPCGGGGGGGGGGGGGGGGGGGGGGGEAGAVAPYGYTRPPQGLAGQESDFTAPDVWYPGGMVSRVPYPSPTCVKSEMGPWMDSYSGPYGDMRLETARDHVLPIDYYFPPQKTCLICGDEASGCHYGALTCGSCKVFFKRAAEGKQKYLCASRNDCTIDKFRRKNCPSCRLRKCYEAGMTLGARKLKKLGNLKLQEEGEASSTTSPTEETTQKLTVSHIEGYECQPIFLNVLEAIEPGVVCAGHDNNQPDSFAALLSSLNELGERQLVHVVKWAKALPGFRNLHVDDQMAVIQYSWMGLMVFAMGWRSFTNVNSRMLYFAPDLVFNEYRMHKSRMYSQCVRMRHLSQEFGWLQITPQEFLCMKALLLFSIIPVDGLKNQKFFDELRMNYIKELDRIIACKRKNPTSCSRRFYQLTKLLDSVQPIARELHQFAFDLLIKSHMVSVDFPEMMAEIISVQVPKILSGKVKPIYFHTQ

SMILES | Activity [1] | Activity [2]
Cc1cc(C)cc(C(=O)N2Cc3ccccc3C[C@H]2CO)c1 | inactive | 
O=C(c1ccc(C(O)(C(F)(F)F)C(F)(F)F)cc1)N1Cc2ccccc2C[C@H]1CO | inactive | 
Cc1ccc(C(=O)N2Cc3ccccc3C[C@H]2CO)cc1F |  | Active
